The values below come from ChEMBL document CHEMBL1146888, “Synthesis and cytotoxicity of leinamycin antibiotic analogues” (J Med Chem, 2006).

Test [1] has as its system HeLa. Kind of test: Cytotoxicity against human HeLa3 cell line by MTT assay. It is filed as functional, cell-based. In general terms: Formazan colour is commonly taken as a measure of viable cells.
Test [2] concerns HeLa. Kind of test: Cytotoxicity against human HeLa3 cell line in presence of ethanethiol by MTT assay. It is filed as functional, cell-based.

Each structure is given as a SMILES string. pIC50: −log10 of the molar value.

Usually pIC50 stands for the negative decadic logarithm of the IC50, by convention in mol/L. As to `CC1(C)O[C@H]([C@H]2COC(C)(C)O2)[C@@H](C2CC(=O)S[S+]2[O-])O1` (stereo partly drawn), the pIC50 was 4.74 in test [1] and 4.90 in test [2].

Regarding `O=C1CC(CCc2ccccc2)[S+]([O-])S1` (stereo not drawn), the figures for the pIC50 in test [1] and in test [2] were 4.16 and 4.61, respectively.

For the compound `O=C1CC(CCc2ccccc2)SS1` (stereo not drawn), the pIC50 in test [1] was 3.59; in test [2], 4.18.

Regarding `Cc1cn([C@H]2C[C@H](O)[C@@H](C3CC(=O)SS3)O2)c(=O)[nH]c1=O` (stereo partly drawn), the values for the pIC50 in test [1] and in test [2] were 3.52 and 4.26, respectively.

Consider `Cc1cn([C@H]2C[C@H](O)[C@@H](C3CC(=O)S[S+]3[O-])O2)c(=O)[nH]c1=O` (stereo partly drawn), for which the results for the pIC50 in test [1] and in test [2] were 3.93 and 4.53, respectively.

Regarding `CC(C)(C)[Si](C)(C)O[C@@H]1[C@H](O[Si](C)(C)C(C)(C)C)[C@@H](C2CC(=O)SS2)O[C@H]1n1ccc(=O)[nH]c1=O` (stereo partly drawn), the values for the pIC50 in test [1] and in test [2] were 5.00 and 5.11, respectively.

In the case of `O=C1CC(CCC#CCOC2CCCCO2)SS1` (stereo not drawn), the pIC50 in test [1] was 3.91; in test [2] it was 4.70.

As for `O=C1CC([C@H]2O[C@@H](n3ccc(=O)[nH]c3=O)[C@H](O)[C@@H]2O)[S+]([O-])S1` (stereo partly drawn), the pIC50 in test [1] is 4.29; in test [2] it was 5.15.

Regarding `Cc1cn([C@H]2C[C@H](O[Si](C)(C)C(C)(C)C)[C@@H](C3CC(=O)SS3)O2)c(=O)[nH]c1=O` (stereo partly drawn), the pIC50 in test [2] is 4.78.

`CC(C)(C)[Si](C)(C)O[C@@H]1[C@H](O[Si](C)(C)C(C)(C)C)[C@@H](C2CC(=O)S[S+]2[O-])O[C@H]1n1ccc(=O)[nH]c1=O` (stereo partly drawn): the pIC50 in test [1] was 5.43; in test [2] it was 5.57.

As for `Cc1cn([C@H]2C[C@H](O[Si](C)(C)C(C)(C)C)[C@@H](C3CC(=O)S[S+]3[O-])O2)c(=O)[nH]c1=O` (stereo partly drawn), the results for the pIC50 in test [1] and in test [2] were 4.37 and 5.18, respectively.

With `O=C1CC(CCC#CCOC2CCCCO2)[S+]([O-])S1` (stereo not drawn), the values for the pIC50 in test [1] and in test [2] were 4.20 and 5.08, respectively.

As for `CC1(C)O[C@H]([C@H]2COC(C)(C)O2)[C@@H](C2CC(=O)SS2)O1` (stereo partly drawn), the pIC50 is 4.44 in test [1] and 4.77 in test [2].

Regarding `O=C1CC([C@H]2O[C@@H](n3ccc(=O)[nH]c3=O)[C@H](O)[C@@H]2O)SS1` (stereo partly drawn), the pIC50 in test [1] is 4.21; in test [2], 4.68.

The compound `COc1cccc2c1C(=O)c1c(O)c3c(c(O)c1C2=O)C[C@@](O)(C(C)=O)C[C@@H]3OC1C[C@H](N)[C@H](O)[C@H](C)O1` (single isomer, unassigned) [DAUNORUBICIN] showed a pIC50 in test [1] of 5.53.
